In US4596710A, “Gallium chloride as a new anti-cancerous drug” (priority 1981, dated 1986):

Columns and labels:
[1] = Clinical and biological tolerance in patients; details: Adriamycine 50 mg + 5-fluoro-uracil 900 mg + Endoxan 900 mg; before gallium chloride; alcoholic patient
Experimental: Mrs. […] Post-operative chemotherapy (5-fluoro-uracil and endoxan) was then effected up to April 1979. At that time, […] underwent a second operation with excision of the remaining cervix and omentectomy. […] Cobalt therapy was then carried out from Nov. 5th, 1979 to Feb. 5th, 1980 on the abdomen, pelvis and diaphragm cupolas, then further chemotherapy (hexamethylmelamine) from August to October 1980. […] Treatment by gallium chloride started on Nov. 1 st, 1980 at the posology of 300 mg per day per os in three doses of 100 mg. […] An echotomograph on Dec. […] A third echotomograph was made on Jan. […] On Mar.
The treatment by gallium chloride was started on May 15th, 1981, at the posology of 600 mg/24 hours up to Sept. 20th, 1981, in association with a heparinotherapy at mini-doses. This heparinotherapy had been prescribed to prevent a phlebitis or pulmonary embolism following the surgical operation of April 1981 and had not been interrupted in order not to provoke the phenomenon of tumoral flare-up. [Calciparin (heparin calcium salt) 0.2 ml, 3 times per day by sub-cutaneous route]. […] On Sept. […] This was the case. . . […] 29th, 1981. […] Up to Nov. […] It was from Sept.
HOT... […] , was operated on May 14th, 1981 for an adenocarcinoma of the colon. […] An almost total colectomy was carried out, leaving 20 cm of sigmoid and a resection of the small bowel over a length of 15 cm. […] On Oct. […] An exploratory laparotomy was made on Nov. […] 7th, 1982.
Gallium chloride therapy was started on Sept.

[2] = cited from earlier work
[3] = Anghileri 1973; cited from earlier work

Molecule: O=c1[nH]cc(F)c(=O)[nH]1 [5-fluoro-uracil, reference compound]
- pancytopenia after combination chemotherapy, 2nd patient [1]: a pancytopenia which would persist for several months

Molecule: COc1cccc2c1C(=O)c1c(O)c3c(c(O)c1C2=O)C[C@@](O)(C(=O)CO)C[C@@H]3O[C@H]1C[C@H](N)[C@H](O)[C@H](C)O1 [Adriamycine, reference compound]
- pancytopenia after combination chemotherapy, 2nd patient [1]: a pancytopenia which would persist for several months

Molecule: O=P1(N(CCCl)CCCl)NCCCO1 (stereo not drawn) [Endoxan, reference compound]
- pancytopenia after combination chemotherapy, 2nd patient [1]: a pancytopenia which would persist for several months

Molecule: O=[N+]([O-])[O-].O=[N+]([O-])[O-].O=[N+]([O-])[O-].[Ga+3] [gallium nitrate]
- renal toxicity ([2]; human therapeutics): excessive renal toxicity
- results of tests in human therapeutics ([2]; in vivo): minor results

Molecule: gallium
- displacement of magnesium from the cell [3]: capable of displacing magnesium from the cell
